Measured values taken from PubChem BioAssay (NCI).
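These data come from cells grown in 96-well plates and exposed to compound for 48 hours at five concentrations. TGI: concentration producing complete growth inhibition.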

Legend:
Test in all cases: NCI tumour cell line growth inhibition, 48 h
SNB-78 CNS = tested on: SNB-78 CNS
M19-MEL melanoma = tested on: M19-MEL melanoma
DMS 273 small cell lung = tested on: DMS 273 small cell lung
DMS 114 small cell lung = tested on: DMS 114 small cell lung
LXFL 529 NSCLC = tested on: LXFL 529 NSCLC
HOP-18 NSCLC = tested on: HOP-18 NSCLC
RXF-631 renal = tested on: RXF-631 renal
KM20L2 colon = tested on: KM20L2 colon
XF 498 CNS = tested on: XF 498 CNS

CCOP12(OCC)NC(=O)OC1(C(F)(F)F)c1ccccc1O2 (centres undefined)
TGI (SNB-78 CNS): > 100 µM
TGI (M19-MEL melanoma): > 100 µM
TGI (DMS 273 small cell lung): > 100 µM
TGI (DMS 114 small cell lung): > 100 µM
TGI (LXFL 529 NSCLC): > 100 µM
TGI (HOP-18 NSCLC): > 100 µM

O=c1c2ccccc2nc2n1-c1ccccc1SC2
TGI (SNB-78 CNS): > 100 µM
TGI (M19-MEL melanoma): > 100 µM
TGI (RXF-631 renal): > 100 µM
TGI (DMS 273 small cell lung): > 100 µM
TGI (KM20L2 colon): > 100 µM
TGI (DMS 114 small cell lung): > 100 µM
TGI (LXFL 529 NSCLC): > 100 µM
TGI (XF 498 CNS): 91.3 µM

O=C1C=CC(=O)c2c1ccc1c3ccccc3n(-c3ccccc3)c21
TGI (SNB-78 CNS): 53.8 µM
TGI (M19-MEL melanoma): 36.1 µM
TGI (RXF-631 renal): 82.2 µM
TGI (DMS 273 small cell lung): 32.1 µM
TGI (KM20L2 colon): 36.9 µM
TGI (DMS 114 small cell lung): 40.4 µM
TGI (LXFL 529 NSCLC): 10.9 µM
TGI (XF 498 CNS): 20.1 µM
TGI (HOP-18 NSCLC): 20.7 µM

O=C(c1nc2ccccc2[nH]c1=O)C(O)c1ccco1 (centres undefined)
TGI (SNB-78 CNS): > 100 µM
TGI (M19-MEL melanoma): > 100 µM
TGI (DMS 273 small cell lung): > 100 µM
TGI (KM20L2 colon): > 100 µM
TGI (DMS 114 small cell lung): > 100 µM
TGI (LXFL 529 NSCLC): > 100 µM
TGI (XF 498 CNS): > 100 µM

C=CCN1COc2c(cc3c4c(cccc24)C(=O)O3)C1
TGI (M19-MEL melanoma): 37.4 µM
TGI (DMS 273 small cell lung): > 100 µM
TGI (KM20L2 colon): > 100 µM
TGI (DMS 114 small cell lung): 35 µM
TGI (LXFL 529 NSCLC): 35.1 µM
TGI (XF 498 CNS): 37.8 µM
TGI (HOP-18 NSCLC): > 100 µM

Cc1ccc(C(c2c(O)c3ccccc3n(-c3ccccc3)c2=O)c2c(O)c3ccccc3n(-c3ccccc3)c2=O)cc1
TGI (SNB-78 CNS): > 100 µM
TGI (M19-MEL melanoma): > 100 µM
TGI (DMS 273 small cell lung): > 100 µM
TGI (KM20L2 colon): > 100 µM
TGI (DMS 114 small cell lung): > 100 µM
TGI (LXFL 529 NSCLC): > 100 µM
TGI (XF 498 CNS): > 100 µM
TGI (HOP-18 NSCLC): > 100 µM

N#CC1=C(c2ccccc2)C(=C2Nc3ccccc3N2)C2S/C(=C\c3ccccc3)C(=O)N2C1=N (centres undefined)
TGI (SNB-78 CNS): 6.86 µM
TGI (M19-MEL melanoma): 7.97 µM
TGI (DMS 273 small cell lung): 4.9 µM
TGI (KM20L2 colon): 6.56 µM
TGI (DMS 114 small cell lung): 4.64 µM
TGI (LXFL 529 NSCLC): 10.8 µM
TGI (XF 498 CNS): 5.57 µM

O=C1CC2(CCC3=C(O2)c2ccccc2NC(=O)C3)C(=O)c2ccccc2N1 (centres undefined)
TGI (SNB-78 CNS): > 100 µM
TGI (M19-MEL melanoma): > 100 µM
TGI (DMS 273 small cell lung): > 100 µM
TGI (KM20L2 colon): > 100 µM
TGI (DMS 114 small cell lung): > 100 µM
TGI (LXFL 529 NSCLC): > 100 µM
TGI (XF 498 CNS): > 100 µM

O=C1C=CC2(C=C1)CCNC1=C2C(=O)c2ccccc2C1=O
TGI (M19-MEL melanoma): > 100 µM
TGI (RXF-631 renal): > 100 µM
TGI (DMS 273 small cell lung): > 100 µM
TGI (KM20L2 colon): > 100 µM
TGI (DMS 114 small cell lung): > 100 µM
TGI (LXFL 529 NSCLC): > 100 µM
TGI (XF 498 CNS): > 100 µM

N#Cc1cc([N+](=O)[O-])ccc1NC(=O)/C(=N\NC(=O)c1ccncc1)C(c1cnc2ccc([N+](=O)[O-])cc2n1)[N+](=O)[O-] (centres undefined)
TGI (SNB-78 CNS): 21.6 µM
TGI (M19-MEL melanoma): 1.69 µM
TGI (RXF-631 renal): 5.13 µM
TGI (DMS 273 small cell lung): 6.59 µM
TGI (KM20L2 colon): 25.1 µM
TGI (DMS 114 small cell lung): 3.1 µM
TGI (LXFL 529 NSCLC): 3.81 µM
TGI (XF 498 CNS): 3.17 µM
TGI (HOP-18 NSCLC): 2.87 µM

OCCCNc1ccnc2cc(Cl)ccc12
TGI (SNB-78 CNS): > 100 µM
TGI (M19-MEL melanoma): > 100 µM
TGI (KM20L2 colon): > 100 µM
TGI (DMS 114 small cell lung): > 100 µM
TGI (LXFL 529 NSCLC): > 100 µM
TGI (XF 498 CNS): > 100 µM
TGI (HOP-18 NSCLC): > 100 µM

NC(=O)/C(=N\NC(=O)C[n+]1ccccc1)C1NC(=O)NC1=O (centres undefined)
TGI (SNB-78 CNS): > 100 µM
TGI (M19-MEL melanoma): > 100 µM
TGI (RXF-631 renal): > 100 µM
TGI (DMS 273 small cell lung): > 100 µM
TGI (KM20L2 colon): > 100 µM
TGI (DMS 114 small cell lung): > 100 µM
TGI (LXFL 529 NSCLC): > 100 µM
TGI (XF 498 CNS): > 100 µM
TGI (HOP-18 NSCLC): > 100 µM

CCOC(=O)C(C(=O)OCC)c1ccc([N+](=O)[O-])o1
TGI (SNB-78 CNS): 34.8 µM
TGI (M19-MEL melanoma): 33.2 µM
TGI (DMS 273 small cell lung): 33.4 µM
TGI (KM20L2 colon): 36.8 µM
TGI (LXFL 529 NSCLC): 11.2 µM
TGI (XF 498 CNS): 31 µM
TGI (HOP-18 NSCLC): 34.2 µM

CC(=O)C1Cn2c(=O)c3cc4ccccc4cc3c(=O)n2C=C1C (centres undefined)
TGI (SNB-78 CNS): > 100 µM
TGI (M19-MEL melanoma): > 100 µM
TGI (RXF-631 renal): > 100 µM
TGI (DMS 273 small cell lung): > 100 µM
TGI (KM20L2 colon): > 100 µM
TGI (DMS 114 small cell lung): > 100 µM
TGI (LXFL 529 NSCLC): > 100 µM
TGI (XF 498 CNS): > 100 µM

C/C(CC(=O)Nc1cc(C)ccc1C)=N/N=C(N)N
TGI (SNB-78 CNS): > 100 µM
TGI (M19-MEL melanoma): > 100 µM
TGI (DMS 273 small cell lung): > 100 µM
TGI (KM20L2 colon): > 100 µM
TGI (DMS 114 small cell lung): > 100 µM
TGI (LXFL 529 NSCLC): > 100 µM
TGI (XF 498 CNS): > 100 µM

O=C1NC(=O)C(C(=O)C(=O)Nc2ccc(Cl)cc2Cl)C(=O)N1
TGI (SNB-78 CNS): > 100 µM
TGI (M19-MEL melanoma): > 100 µM
TGI (RXF-631 renal): > 100 µM
TGI (KM20L2 colon): > 100 µM
TGI (DMS 114 small cell lung): > 100 µM
TGI (LXFL 529 NSCLC): > 100 µM
